Test results: ChEMBL document CHEMBL1201862, “PubChem BioAssay data set” (2004)
Calls of active or inactive are those of the source.

Tests used:
Interleukin-8 [1] = biological target: T1, Interleukin-8 (Homo sapiens, UniProt P10145); assay: Dose Response confirmation of uHTS small molecule hits for cystic fibrosis induced NFkb Inhibitors in a TNFa-induced IL8 counterscreen.; format: functional; settings: read-out: IC50_Mean
Interleukin-8 [2] = biological target: T1, Interleukin-8; assay: Dose Response confirmation of uHTS small molecule hits for cystic fibrosis induced NFkb Inhibitors in a PAF-induced IL8 counterscreen.; format: functional; settings: read-out: IC50_Mean
Large T antigen = Large T antigen (Simian virus 40, UniProt P03070); format: functional, Betapolyomavirus macacae;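 note: Confirmatory-stage PubChem screen for compounds that inhibit SV40 T antigen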
[3] = biological target: 26S proteasome non-ATPase regulatory subunit 14 (Homo sapiens, UniProt O00487); assay: inhibition of proteasome subunit RPN11 – biochemical, fluorescence polarization, uHTS hits, confirmation (AID 602368); format: functional
Sequence of 26S proteasome non-ATPase regulatory subunit 14 (O00487 whole entry): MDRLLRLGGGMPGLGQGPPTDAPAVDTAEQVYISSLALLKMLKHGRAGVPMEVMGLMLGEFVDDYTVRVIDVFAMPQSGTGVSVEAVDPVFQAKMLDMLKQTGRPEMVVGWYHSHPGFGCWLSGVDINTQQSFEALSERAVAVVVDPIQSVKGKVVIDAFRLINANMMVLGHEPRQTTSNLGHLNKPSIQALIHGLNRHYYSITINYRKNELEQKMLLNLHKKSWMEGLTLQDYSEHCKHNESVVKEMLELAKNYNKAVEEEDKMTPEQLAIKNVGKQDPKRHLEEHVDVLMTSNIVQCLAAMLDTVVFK

[4] = biological target: 72 kDa type IV collagenase (Homo sapiens, UniProt P08253); assay: Dose Response validation of uHTS RPN11 inhibitor hits using a MMP-2 Fluorescence assay.; format: functional
Sequence of 72 kDa type IV collagenase (P08253 whole entry): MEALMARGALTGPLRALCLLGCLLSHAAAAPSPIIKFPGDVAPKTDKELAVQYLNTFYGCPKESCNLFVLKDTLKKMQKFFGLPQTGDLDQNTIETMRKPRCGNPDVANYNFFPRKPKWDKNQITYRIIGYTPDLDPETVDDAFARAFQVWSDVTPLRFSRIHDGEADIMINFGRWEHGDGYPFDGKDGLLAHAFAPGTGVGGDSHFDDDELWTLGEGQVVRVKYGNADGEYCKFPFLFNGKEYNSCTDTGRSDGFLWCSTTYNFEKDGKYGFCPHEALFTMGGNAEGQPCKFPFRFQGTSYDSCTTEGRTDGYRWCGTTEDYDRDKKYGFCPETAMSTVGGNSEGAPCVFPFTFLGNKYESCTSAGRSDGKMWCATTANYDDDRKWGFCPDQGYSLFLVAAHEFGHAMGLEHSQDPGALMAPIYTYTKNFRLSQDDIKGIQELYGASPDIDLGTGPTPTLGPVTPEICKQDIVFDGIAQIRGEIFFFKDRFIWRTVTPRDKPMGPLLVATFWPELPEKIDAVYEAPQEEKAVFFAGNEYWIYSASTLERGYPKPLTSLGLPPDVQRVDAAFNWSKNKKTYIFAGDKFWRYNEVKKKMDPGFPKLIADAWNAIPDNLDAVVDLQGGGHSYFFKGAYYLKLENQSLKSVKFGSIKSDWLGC

Prothrombin = Prothrombin (Bos taurus, UniProt P00735); assay: thrombin protease inhibitors – biochemical, fluorescence polarization, uHTS hits, dose response (AID 602369); format: functional
[5] = tested on: Streptococcus sp. 'group A'; assay: Streptococcus pyogenes SK(-)GAS viability under kanamycin – luminescence, BacTiterGlo, confirmation, counter-screen for streptokinase expression inhibitor project, dose response (AID 1900); format: functional, organism-based
[6] = biological target: T2, Zinc finger protein mex-5 (Caenorhabditis elegans, UniProt Q9XUB2); assay: potency of MEX-5 RNA-binding blockers – biochemical, C. elegans, fluorescence polarization, dose response (AID 1960)
T2 sequence (Q9XUB2 whole entry): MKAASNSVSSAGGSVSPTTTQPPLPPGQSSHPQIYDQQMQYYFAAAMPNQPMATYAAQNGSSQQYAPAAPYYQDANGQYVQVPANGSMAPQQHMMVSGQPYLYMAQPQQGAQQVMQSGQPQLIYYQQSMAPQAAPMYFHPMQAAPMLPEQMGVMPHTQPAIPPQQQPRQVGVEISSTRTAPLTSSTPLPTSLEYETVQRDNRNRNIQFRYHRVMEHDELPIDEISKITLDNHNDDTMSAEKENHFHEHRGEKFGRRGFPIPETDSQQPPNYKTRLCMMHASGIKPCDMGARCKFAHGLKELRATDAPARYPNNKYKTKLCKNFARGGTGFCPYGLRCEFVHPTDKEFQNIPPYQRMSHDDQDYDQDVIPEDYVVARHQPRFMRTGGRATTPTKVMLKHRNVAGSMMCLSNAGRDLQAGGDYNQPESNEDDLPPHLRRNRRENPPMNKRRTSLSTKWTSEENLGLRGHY

Streptococcus = assay: GAS UMAA2166 growth inhibition – luminescence, BacTiterGlo, counter-screen for streptokinase expression inhibitor project, dose response (AID 1915); format: functional, organism-based;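 note: potency for reduction of bacterial viability or growth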
Escherichia coli [7] = assay: microbe, parasite or virus in culture
Escherichia coli [8] = assay: microbe, parasite or virus in culture; remark: listed apart in the source
[9] = Luminescence Cell-Based Dose Response to Identify Activators of 5'UTR Stem-Loop Driven Prion Protein mRNA Translation in H4-C Neuroglioblastoma Cells. [Related pubchem assays: 1829 (Project Summary), 1814 (Primary HTS)]; format: functional
H4 = assay: Luminescence Cell-Based Dose Response HTS to Identify Activators of 5'UTR Stem-Loop Driven Prion Protein mRNA Translation in H4 Neuroglioblastoma Cells. [Related pubchem assays: 1829 (Project Summary), 1814 (Primary HTS)]; format: functional; settings: Homo sapiens
[10] = Luminescence Cell-Based Dose Response to Identify Activators of Luciferase Translation or Activity in H4-C Neuroglioblastoma Cells. [Related pubchem assays: 1829 (Project Summary), 1814 (Primary HTS)]; format: functional
[11] = Luminescence Cell-Based Dose Confirmation to Identify Activators of 5'UTR Stem-Loop Driven Alpha-Synuclein mRNA Translation in H4 Neuroglioblastoma Cells. [Related pubchem assays: 1829 (Project Summary), 1814 (Primary HTS)]; format: functional
HEK293 = assay: cells; format: functional, cell-based; settings: Homo sapiens
[12] = biological target: Nuclear receptor subfamily 0 group B member 1 (Homo sapiens, UniProt P51843); assay: Luminescence-based cell-based high throughput dose response assay for inhibitors of the orphan nuclear receptor subfamily 0, group B, member 1 (DAX1; NR0B1). [Related pubchem assays (depositor defined):AID504766, AID504790]; format: functional
Sequence of Nuclear receptor subfamily 0 group B member 1 (P51843 whole entry): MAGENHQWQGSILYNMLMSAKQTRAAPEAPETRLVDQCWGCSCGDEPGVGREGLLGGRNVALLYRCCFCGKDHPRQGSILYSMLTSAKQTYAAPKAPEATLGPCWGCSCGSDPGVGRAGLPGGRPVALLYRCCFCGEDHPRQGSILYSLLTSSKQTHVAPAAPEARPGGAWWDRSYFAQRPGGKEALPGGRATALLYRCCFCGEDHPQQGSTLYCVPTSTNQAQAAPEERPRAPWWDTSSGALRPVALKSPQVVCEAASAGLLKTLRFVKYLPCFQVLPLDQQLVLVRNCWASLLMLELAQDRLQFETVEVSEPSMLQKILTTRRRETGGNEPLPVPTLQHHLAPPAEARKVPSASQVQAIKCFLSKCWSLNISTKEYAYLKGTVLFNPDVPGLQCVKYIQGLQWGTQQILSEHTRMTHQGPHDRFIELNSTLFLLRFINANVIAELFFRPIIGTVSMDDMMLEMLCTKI

Bcl-2-related protein A1 = biological target: T3, Bcl-2-related protein A1 (Mus musculus, UniProt Q07440); format: functional;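 note: confirmatory dose–response counterscreen on Bfl-1, used to check hits from a UBC13 polyubiquitin inhibitor campaign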
T3 sequence (Q07440 whole entry): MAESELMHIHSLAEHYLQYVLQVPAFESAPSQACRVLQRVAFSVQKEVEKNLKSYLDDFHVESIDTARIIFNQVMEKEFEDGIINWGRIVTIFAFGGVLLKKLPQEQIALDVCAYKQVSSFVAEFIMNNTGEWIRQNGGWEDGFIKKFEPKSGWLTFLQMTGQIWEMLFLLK

[13] = biological target: T4, Ubiquitin-conjugating enzyme E2 N (Homo sapiens, UniProt P61088); format: functional
T4 sequence (P61088 whole entry): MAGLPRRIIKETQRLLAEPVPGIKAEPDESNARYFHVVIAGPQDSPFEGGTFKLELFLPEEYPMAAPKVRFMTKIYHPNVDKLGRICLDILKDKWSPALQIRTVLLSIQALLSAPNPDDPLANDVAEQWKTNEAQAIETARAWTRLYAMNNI

[14] = biological target: T4, Ubiquitin-conjugating enzyme E2 N; format: functional; remark: listed apart in the source
[15] = biological target: T5, Apoptotic protease-activating factor 1 (Homo sapiens, UniProt O14727); assay: SAR analysis of small molecule inhibitors of Apaf-1 in a Fluorescent assay.; format: functional; settings: read-out: IC50_Mean
T5 sequence (O14727 whole entry): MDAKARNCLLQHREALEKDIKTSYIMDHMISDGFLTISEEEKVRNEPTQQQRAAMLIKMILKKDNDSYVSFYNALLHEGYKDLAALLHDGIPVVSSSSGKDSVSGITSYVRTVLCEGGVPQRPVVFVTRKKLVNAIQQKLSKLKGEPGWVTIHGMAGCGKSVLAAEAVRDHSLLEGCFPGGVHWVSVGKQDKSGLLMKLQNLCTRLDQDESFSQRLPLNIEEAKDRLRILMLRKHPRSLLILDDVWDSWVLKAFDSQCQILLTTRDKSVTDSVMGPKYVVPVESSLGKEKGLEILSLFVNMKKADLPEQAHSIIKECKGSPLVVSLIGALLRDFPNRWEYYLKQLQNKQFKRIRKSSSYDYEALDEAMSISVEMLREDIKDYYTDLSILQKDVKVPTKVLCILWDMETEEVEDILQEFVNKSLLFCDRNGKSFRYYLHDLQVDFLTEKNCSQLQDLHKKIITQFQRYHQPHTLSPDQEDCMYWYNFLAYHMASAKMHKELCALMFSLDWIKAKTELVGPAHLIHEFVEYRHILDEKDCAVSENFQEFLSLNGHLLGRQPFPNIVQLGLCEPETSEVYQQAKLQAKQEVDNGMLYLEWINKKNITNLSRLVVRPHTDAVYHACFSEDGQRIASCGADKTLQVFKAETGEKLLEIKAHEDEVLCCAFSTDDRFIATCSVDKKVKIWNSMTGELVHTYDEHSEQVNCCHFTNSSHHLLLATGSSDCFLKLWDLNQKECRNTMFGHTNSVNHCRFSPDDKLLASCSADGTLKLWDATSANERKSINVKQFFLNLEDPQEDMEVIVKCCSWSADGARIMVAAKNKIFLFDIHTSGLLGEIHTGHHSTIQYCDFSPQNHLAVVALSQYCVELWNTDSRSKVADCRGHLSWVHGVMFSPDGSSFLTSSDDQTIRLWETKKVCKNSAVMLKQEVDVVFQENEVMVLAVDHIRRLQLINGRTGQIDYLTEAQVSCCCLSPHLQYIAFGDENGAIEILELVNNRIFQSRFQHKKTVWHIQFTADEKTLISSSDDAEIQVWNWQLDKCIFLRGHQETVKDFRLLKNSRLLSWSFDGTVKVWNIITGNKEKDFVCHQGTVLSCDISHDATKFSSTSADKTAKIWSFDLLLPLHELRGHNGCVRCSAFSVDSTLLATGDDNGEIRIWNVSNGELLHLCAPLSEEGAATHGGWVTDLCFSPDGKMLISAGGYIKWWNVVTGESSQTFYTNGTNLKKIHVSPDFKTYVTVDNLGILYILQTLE

[16] = biological target: T6, Small ubiquitin-related modifier 1 (Homo sapiens, UniProt P63165); assay: SUMO1 protein interaction blockers, potency – biochemical, fluorescence polarization, uHTS hits, dose response (AID 624382); format: functional; settings: read-out: IC50_Mean
T6 sequence (P63165 whole entry): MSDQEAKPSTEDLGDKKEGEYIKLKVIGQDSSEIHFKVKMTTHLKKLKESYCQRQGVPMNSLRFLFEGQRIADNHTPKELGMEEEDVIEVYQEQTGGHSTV

[17] = biological target: T6, Small ubiquitin-related modifier 1; assay: SUMO1 protein-protein binding blockers, potency – biochemical, FRET, dose response (AID 624383); format: functional; settings: read-out: IC50_Mean
Fatty acid synthase [18] = biological target: T7, Fatty acid synthase (Homo sapiens, UniProt P49327); assay: inhibition of human FAS-TE enzyme activity – biochemical, endpoint fluorescence intensity, uHTS hits, dose response (AID 624327); format: functional;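 note: fluorescence from hydrolysis of an O-methyl fluorescein acyl ester substrate by the enzyme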
T7 sequence (P49327 whole entry): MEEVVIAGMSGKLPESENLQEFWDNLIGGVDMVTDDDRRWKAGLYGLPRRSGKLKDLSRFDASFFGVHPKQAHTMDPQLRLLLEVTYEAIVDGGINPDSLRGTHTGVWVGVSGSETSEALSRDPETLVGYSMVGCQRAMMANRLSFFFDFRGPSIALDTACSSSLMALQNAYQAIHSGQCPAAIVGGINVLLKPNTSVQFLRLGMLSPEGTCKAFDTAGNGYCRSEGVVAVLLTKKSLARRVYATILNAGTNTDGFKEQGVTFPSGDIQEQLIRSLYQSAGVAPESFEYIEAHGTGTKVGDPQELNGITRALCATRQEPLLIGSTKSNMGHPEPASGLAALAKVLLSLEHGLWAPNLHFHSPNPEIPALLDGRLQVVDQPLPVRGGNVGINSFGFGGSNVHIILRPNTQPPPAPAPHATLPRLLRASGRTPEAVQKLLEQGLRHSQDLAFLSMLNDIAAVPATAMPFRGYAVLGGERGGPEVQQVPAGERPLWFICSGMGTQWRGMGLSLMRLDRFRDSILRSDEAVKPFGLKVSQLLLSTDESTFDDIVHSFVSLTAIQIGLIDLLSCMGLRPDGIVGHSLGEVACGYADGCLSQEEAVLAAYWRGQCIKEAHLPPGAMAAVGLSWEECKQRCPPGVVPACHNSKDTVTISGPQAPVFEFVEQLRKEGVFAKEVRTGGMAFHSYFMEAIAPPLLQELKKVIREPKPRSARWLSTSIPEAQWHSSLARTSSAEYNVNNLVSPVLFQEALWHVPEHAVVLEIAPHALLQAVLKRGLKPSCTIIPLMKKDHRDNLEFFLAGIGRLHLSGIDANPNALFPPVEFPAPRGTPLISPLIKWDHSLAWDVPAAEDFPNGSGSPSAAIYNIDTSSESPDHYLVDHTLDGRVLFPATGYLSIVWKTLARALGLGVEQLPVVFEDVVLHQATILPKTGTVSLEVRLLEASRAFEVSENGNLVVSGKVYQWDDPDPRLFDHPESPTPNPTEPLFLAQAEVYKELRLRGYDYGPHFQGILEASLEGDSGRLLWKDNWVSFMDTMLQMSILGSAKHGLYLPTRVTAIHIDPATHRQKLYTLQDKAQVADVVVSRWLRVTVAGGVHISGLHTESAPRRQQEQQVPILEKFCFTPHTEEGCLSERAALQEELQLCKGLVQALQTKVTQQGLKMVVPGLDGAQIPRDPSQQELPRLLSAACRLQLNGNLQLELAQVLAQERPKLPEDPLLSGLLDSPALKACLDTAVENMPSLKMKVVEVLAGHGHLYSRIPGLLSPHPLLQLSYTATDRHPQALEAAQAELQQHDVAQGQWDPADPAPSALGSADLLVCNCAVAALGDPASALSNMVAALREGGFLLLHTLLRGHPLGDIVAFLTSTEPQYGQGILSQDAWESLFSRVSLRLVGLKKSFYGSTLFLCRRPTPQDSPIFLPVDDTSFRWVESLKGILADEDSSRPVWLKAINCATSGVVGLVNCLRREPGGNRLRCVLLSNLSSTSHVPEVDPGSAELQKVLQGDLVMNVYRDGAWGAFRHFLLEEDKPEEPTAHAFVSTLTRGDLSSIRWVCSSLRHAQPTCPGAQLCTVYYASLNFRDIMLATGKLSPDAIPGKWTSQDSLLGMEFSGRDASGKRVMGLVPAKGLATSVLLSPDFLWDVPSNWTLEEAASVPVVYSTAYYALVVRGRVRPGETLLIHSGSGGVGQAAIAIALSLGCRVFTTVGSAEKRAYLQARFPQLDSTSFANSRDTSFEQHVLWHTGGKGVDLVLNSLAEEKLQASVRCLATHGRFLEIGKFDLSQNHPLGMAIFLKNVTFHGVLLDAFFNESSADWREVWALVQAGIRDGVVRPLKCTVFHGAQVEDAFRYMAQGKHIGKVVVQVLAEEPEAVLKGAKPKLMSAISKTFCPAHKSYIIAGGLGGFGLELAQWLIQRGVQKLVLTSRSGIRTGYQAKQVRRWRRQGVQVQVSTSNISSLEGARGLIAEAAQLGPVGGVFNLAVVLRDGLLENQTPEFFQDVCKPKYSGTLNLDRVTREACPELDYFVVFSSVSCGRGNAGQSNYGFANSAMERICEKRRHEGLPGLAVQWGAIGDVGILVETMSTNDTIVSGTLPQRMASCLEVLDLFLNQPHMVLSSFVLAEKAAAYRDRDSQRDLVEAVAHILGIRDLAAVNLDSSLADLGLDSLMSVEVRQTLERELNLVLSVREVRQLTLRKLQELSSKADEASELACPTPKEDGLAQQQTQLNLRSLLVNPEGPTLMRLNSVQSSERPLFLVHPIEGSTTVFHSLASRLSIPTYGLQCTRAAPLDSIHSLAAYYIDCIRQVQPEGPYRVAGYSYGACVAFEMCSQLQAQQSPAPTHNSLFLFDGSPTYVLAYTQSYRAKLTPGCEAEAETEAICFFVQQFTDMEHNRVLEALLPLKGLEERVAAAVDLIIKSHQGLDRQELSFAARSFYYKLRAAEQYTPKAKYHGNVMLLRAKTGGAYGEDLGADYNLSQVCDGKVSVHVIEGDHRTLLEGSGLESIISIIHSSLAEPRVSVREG

Fatty acid synthase [19] = biological target: T7, Fatty acid synthase; assay: inhibition of human FAS-TE enzyme activity – biochemical, kinetic fluorescence intensity, dose response (AID 624326); format: functional;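 note: rate of fluorescence rise from hydrolysis of a fluorogenic O-methyl fluorescein ester substrate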
Galanin receptor type 3 = biological target: T8, Galanin receptor type 3 (Homo sapiens, UniProt O60755); assay: Fluorescence-based cell-based primary high throughput dose response assay to identify antagonists of the Galanin Receptor 3 (GalR3).; format: functional
T8 sequence (O60755 whole entry): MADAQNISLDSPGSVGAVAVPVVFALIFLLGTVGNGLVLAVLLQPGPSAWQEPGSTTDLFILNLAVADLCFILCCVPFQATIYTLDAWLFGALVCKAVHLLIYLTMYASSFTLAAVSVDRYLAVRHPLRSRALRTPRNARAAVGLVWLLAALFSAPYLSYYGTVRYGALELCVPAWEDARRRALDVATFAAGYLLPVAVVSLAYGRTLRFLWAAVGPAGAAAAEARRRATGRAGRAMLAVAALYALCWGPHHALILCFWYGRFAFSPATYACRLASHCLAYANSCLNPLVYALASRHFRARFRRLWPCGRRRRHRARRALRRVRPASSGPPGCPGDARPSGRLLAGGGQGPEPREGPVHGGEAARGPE

cells = format: functional, cell-based; settings: HEK-CNG
[20] = biological target: Adenosylmethionine-8-amino-7-oxononanoate aminotransferase (Mycobacterium tuberculosis, UniProt P9WQ81); assay: Mycobacterium tuberculosis BioA enzyme inhibitor Measured in Biochemical System Using Plate Reader - 2163-02_Inhibitor_Dose_CherryPick_Activity.; format: functional, Mycobacterium tuberculosis UT205
Sequence of Adenosylmethionine-8-amino-7-oxononanoate aminotransferase (P9WQ81 whole entry): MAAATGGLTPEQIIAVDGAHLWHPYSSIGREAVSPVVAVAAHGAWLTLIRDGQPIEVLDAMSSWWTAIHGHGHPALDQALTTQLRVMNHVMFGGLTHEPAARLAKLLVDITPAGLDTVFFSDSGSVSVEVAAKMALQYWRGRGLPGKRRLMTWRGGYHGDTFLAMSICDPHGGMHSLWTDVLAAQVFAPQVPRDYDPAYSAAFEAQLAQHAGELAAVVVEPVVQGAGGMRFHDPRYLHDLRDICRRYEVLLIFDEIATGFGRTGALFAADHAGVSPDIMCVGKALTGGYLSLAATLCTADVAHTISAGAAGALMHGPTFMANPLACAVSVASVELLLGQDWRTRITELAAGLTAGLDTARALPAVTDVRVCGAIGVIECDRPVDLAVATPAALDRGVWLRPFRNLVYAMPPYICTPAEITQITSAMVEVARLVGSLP

[21] = NIH-3T3 fibroblast cytotoxicity, dose response, cytotoxicity control, cell-based, fluorescence, Alamar Blue, secondary assay (AID 2327); format: functional;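 note: NIH-3T3 mouse fibroblasts cultured with fluconazole at 8 µg/mL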
[22] = fluconazole-exposed Candida albicans growth modulators – fluorescence, retest, confirmation (AID 2467); format: functional, cell-based
[23] = biological target: Serine/threonine-protein phosphatase (Candida dubliniensis (strain CD36 / CBS 7987 / NCPF 3949 / NRRLY-17841) (Yeast), UniProt B9W6M3); assay: blockers of CaCl2-induced CDRE-lacZ signaling – S. cerevisiae, luminescence, secondary, dose response (AID 2388); format: functional, cell-based;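 note: yeast reporter cells carrying a calcineurin-responsive lacZ construct stimulated with calcium chloride; luminescent beta-galactosidase reporter signal in whole cells rather than isolated phosphatase activity; potency for inhibition where a drop in reporter signal means calcineurin blockade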
[24] = Luminescence Cell-Based Dose Retest to Confirm Inhibitors of Cancer Stem Cells. [Related pubchem assays (depositor defined):AID2717, AID2721]; format: functional; settings: Homo sapiens
[25] = biological target: ATP-dependent molecular chaperone HSP82 (Candida albicans (strain WO-1) (Yeast), UniProt C4YTQ8); assay: steroid-induced GRE reporter decrease in yeast – S. cerevisiae, luminescence, Hsp90 inhibitor project, dose response (AID 2400); format: functional, cell-based;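 note: beta-galactosidase luminescence from glucocorticoid response element reporter as proxy for Hsp90 function; inhibitor potency where signal loss means Hsp90 inhibition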

T1 sequence (P10145 whole entry): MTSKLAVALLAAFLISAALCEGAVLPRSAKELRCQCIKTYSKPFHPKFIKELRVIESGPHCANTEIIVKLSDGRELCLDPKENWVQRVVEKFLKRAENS

## CCN1CCN(Cc2ccc(NC(=O)c3ccc(C)c(NC(=O)N4CCNC4=O)c3)cc2C(F)(F)F)CC1
Interleukin-8 [1]
  IC50: > 79 µM (inactive)
Interleukin-8 [2]
  IC50: 56.5 µM (inactive)

## Cc1cc(C(=O)c2cccs2)c(N)s1
Large T antigen
  IC50: 51.8 µM (active)
[3]
  IC50: 20.5 µM (active)
[4]
  IC50: 32.7 µM (active)
Prothrombin
  IC50: 28.2 µM (active)

## C[C@H]1c2cccc(O)c2C(=O)C2=C(O)[C@]3(O)C(O)=C(C(N)=O)C(=O)[C@@H](N(C)C)C3[C@@H](O)C21 (stereo partly specified)
[5]
  EC50: < 0.06 µM (active)
[6]
  EC50: 45.3 µM (active)
Streptococcus
  EC50: 0.109 µM (active)
Escherichia coli [7]
  AC50: 39.8 µM (active)
Escherichia coli [8]
  AC50: 2.34 µM (active)

## Cc1ccccc1Nc1nc(N)nc(CSc2ccc(F)cc2)n1
[9]
  EC50: 0.343 µM (active)
H4
  EC50: < 0.1 µM (active)
[10]
  EC50: 0.351 µM (active)
[11]
  EC50: 0.229 µM (active)
HEK293
  IC50: > 67.5 µM (inactive)
[12]
  IC50: > 67.5 µM (inactive)

## CCN(CC)CCOC(=O)c1ccc(N/C=C(/C#N)c2nc(-c3ccc(OC)cc3)cs2)cc1
Bcl-2-related protein A1
  IC50: 2.99 µM (active)
[13]
  IC50: 4.88 µM (active)
[14]
  IC50: 4.3 µM (active)
[15]
  IC50: 9.94 µM (active)
[16]
  IC50: > 66.6 µM (inactive)
[17]
  IC50: 5.97 µM (active)

## CC(=O)Nc1ccc(S(=O)(=O)N[C@@H](C)C(=O)OCC(=O)c2ccc(Br)s2)cc1
HEK293
  IC50: > 67.5 µM (inactive)
[12]
  IC50: > 67.5 µM (inactive)

## COc1cc([N+](=O)[O-])cc(/C=N/NC(=O)c2cncc(Br)c2)c1O
[5]
  EC50: 1.85 µM (active)
Streptococcus
  EC50: 1.02 µM (active)
[3]
  IC50: 49.5 µM (active)
[4]
  IC50: 12.5 µM (active)
Prothrombin
  IC50: 39.1 µM (active)
Fatty acid synthase [18]
  IC50: 20 µM (active)
Fatty acid synthase [19]
  IC50: 10.2 µM (active)
Galanin receptor type 3
  IC50: > 9.97 µM (active)
cells
  EC50: > 29.9 µM (inactive)

## COc1ccc(N2C(=O)CC3(CC(c4ccc(F)cc4)=NO3)C2=O)cc1 (stereo unspecified)
[15]
  IC50: 58.3 µM (active)

## O=C(N[C@@H]1CC[C@H](CCn2cc(-c3cccnc3)nn2)O[C@@H]1CO)c1ccccc1F
[20]
  AC50: 6.17 µM (active)

## CC/C(=N/NC(=O)c1ccccc1O)c1c(C)nn(-c2ccccc2)c1O
[21]
  EC50: 39 µM (active)
[22]
  EC50: 0.114 µM (active)
[23]
  EC50: > 180 µM (inactive)
[24]
  AC50: 3.29 µM (active)
[25]
  EC50: > 150 µM (inactive)
